Experimental data published in publication PMC13083723 (Patterns, 2026).

Test system: Vero-E6 cells
Test: cells
Format: cell-based
Conditions: not given

Row | Molecule | PL_Result
1 | Ac-PHSCN-NH2 [SPE_K00521308] | -0.965

Same assay, conditions: Chlorocebus sabaeus, Vero C1008, 24 h, read-out: PL_Result

Row | Molecule | activation at 10 µM
2 | CNC[C@H](O)c1cccc(O)c1 [SPE_K73381542] | 3.82%
3 | CC(C)[N+](C)(CCOC(=O)C1c2ccccc2Oc2ccccc21)C(C)C [SPE_K90885812] | -7.34%
4 | O=C(CC(c1ccccc1)c1ccccc1)N1CCN(C(c2ccccc2)c2ccccc2)CC1 [SPE_K16037980] | -13.7%
5 | CN1C(=O)OC(C)(C)C1=O [SPE_K16606819] | -11.7%
6 | CCOC(=O)n1ccn(C)c1=S [SPE_K87156652] | -10.8%
7 | Nc1nc(OCc2ccccc2)c2nc[nH]c2n1 [SPE_K92041145] | -3.41%
8 | CCS(=O)(=O)c1cccc(-c2cc(C(=O)NC3CCN(C)CC3)c(C)c3[nH]c4ncc(C)cc4c23)c1 [SPE_K01683783] | -6.51%
9 | O=C(O)c1cc(O)c2c(c1)C(=O)c1cccc(O)c1C2=O [SPE_K27335680] | -8.5%
10 | c1ccc(C(O[C@@H]2CCCN(CCc3ccc4c(c3)OCO4)C2)c2ccccc2)cc1 [SPE_K80451230] | 13%
11 | C=C1C(=O)O[C@@H]2[C@H]3O[C@]3(C)CC/C=C(\C)CC[C@@H]12 [SPE_K28120222] | -7.03%
12 | COc1ccc(Oc2c(Cl)cnn(C3c4ccccc4-c4ccccc43)c2=O)cc1 [SPE_K27732927] | -5.19%
13 | Cn1cc(-c2cc(Oc3cc(F)c(NC(=O)C4(C(=O)Nc5ccccc5)CC4)cc3F)ccn2)cn1 [SPE_K49246350] | -0.953%
14 | CCN1C(=O)CN=C2NC=C(c3ccc(-c4nnc[nH]4)nc3C)N=C21 [SPE_K16755045] | 5.12%
15 | CC[C@H](CO)Nc1nc(NCc2ccccc2)c2ncn(C(C)C)c2n1 [SPE_K07691486] | 5.8%
16 | O=c1n(CCCN2CCN(c3cccc(Cl)c3)CC2)nc2ccccn12 [SPE_K70778732] | -8.41%
17 | O=C(O)C(Cc1ccccc1)NCc1ccc(Cl)cc1 (stereo not shown) [SPE_A57806482] | 2.25%
18 | CC(=O)NC[C@H]1CN(c2ccc(N3CCN(C(=O)CO)CC3)c(F)c2)C(=O)O1 [SPE_K47554101] | -3.34%
19 | Cn1nc(-c2ccc(C(F)(F)F)cc2)nc2c(=O)n(C)c(=O)nc1-2 [SPE_K01129913] | -6.15%
20 | NCC(CS(=O)(=O)O)c1ccc(Cl)cc1 (stereo not shown) [SPE_A24122750] | -1.21%
21 | CC(C)Nc1nc2cc(Cl)c(Cl)cc2n1[C@H]1O[C@@H](CO)[C@H](O)[C@@H]1O [SPE_K59524082] | -6.13%
22 | Cc1nc(N)sc1-c1ccnc(Nc2ccc(N3CCOCC3)cc2)n1 [SPE_K64866502] | -7.46%

Row | Molecule | activation at 10 µM
23 | COc1ccc(NS(=O)(=O)c2ccc(I)cc2)cc1N1CCN(C)CC1 [SPE_K80639402] | 17.6%
24 | CN(CC[C@@H](Oc1ccc(-c2ccccc2)cc1)c1ccc(F)cc1)CC(=O)O [SPE_K53979406] | -9.75%
25 | CCCCCCCCCCCCCCCCO [SPE_K37203094] | 1.52%
26 | COC(F)(F)C(Cl)Cl [SPE_K06152156] | -2.25%
27 | O=S(=O)(Cc1ccccc1)Nc1ccc(-c2ccc3c(cnn3-c3ccc(F)cc3)c2)c(C(F)(F)F)c1 [SPE_K29328421] | -4.77%
28 | COc1ccc2cc3[n+](cc2c1OC)CCc1cc2c(cc1-3)OCO2 [SPE_K14796088] | -2.9%
29 | CCN(CC)CC1CCCCN1CC(=O)N1c2ccccc2C(=O)Nc2cccnc21 (stereo not shown) [SPE_A00520476] | -3.51%
30 | CC(=O)O[C@H]1CC[C@@]2(C)C(=CC[C@@H]3[C@@H]2CC[C@]2(C)C(c4cccnc4)=CC[C@@H]32)C1 [SPE_K24048528] | -6.34%
31 | Nn1cnc2cc3ccccc3cc2c1=O [SPE_K31329721] | -8.33%
32 | Cc1[nH]nc(C(F)(F)F)c1Cc1sc2c(c1C(=O)N1C[C@](C)(O)CO1)c(=O)n(C)c(=O)n2C(C)C [SPE_K25210703] | -5.25%
33 | CC(=O)c1ccc2c(c1)N(CCCN(C)C)c1ccccc1S2 [SPE_K37814297] | 27.3%
34 | CC(C)[C@H](CO)Nc1nc(Nc2cccc(Cl)c2)c2ncn(C(C)C)c2n1 [SPE_K50836978] | 1.32%
35 | O=C(NCCN1CCN(c2ncccn2)CC1)C12CC3CC(CC(C3)C1)C2 [SPE_K67789209] | -11.4%
36 | COc1cc(C=O)c([N+](=O)[O-])cc1OC [SPE_K03564313] | 2.17%
37 | O=C1OC(c2ccc(O)cc2)(c2ccc(O)cc2)c2ccccc21 [SPE_K19227686] | 1.99%
38 | O=C(NCCCN1CCOCC1)c1ccc(Cl)cc1 [SPE_K17979676] | -11.4%
39 | Cc1ccc2c(c1CCC(=O)O)CC[C@@H](NS(=O)(=O)c1ccc(Cl)cc1)C2 [SPE_K43975632] | 0.256%
40 | C[N+]12CCC(CC1)C(OC(=O)C(O)(c1ccccc1)c1ccccc1)C2 (stereo not shown) [SPE_A46066006] | 2.01%
41 | CC(C)(C)c1ccc(NC(=O)N2CCN(c3ncccc3Cl)CC2)cc1 [SPE_K66541497] | -7.73%
42 | Cc1c(-c2ccnn2C)cc(C(=O)NCc2ccc(S(C)(=O)=O)cn2)c(=O)n1-c1cccc(C(F)(F)F)c1 [SPE_K31476763] | -9.37%
43 | Nc1c[n+](N2CCOCC2)no1 [SPE_K72922393] | -10.9%

Row | Molecule | activation at 10 µM
44 | Cc1ccc(S(=O)(=O)NC(=O)NN2CCCCCC2)cc1 [SPE_K32164935] | -1.35%
45 | CN1CC[C@@H](c2c(O)cc(O)c3c(=O)cc(-c4ccccc4Cl)oc23)[C@@H]1CO [SPE_K51791723] | 1.15%
46 | Cc1cc(N2CCCCC2)nc2ccccc12 [SPE_K80021413] | -1.3%
47 | Nc1ccn(C[C@@H](CO)OCP(=O)(O)O)c(=O)n1 [SPE_K96153583] | -12.6%
48 | C=CC(=O)Nc1cc(Nc2nccc(-c3c[nH]c4ccccc34)n2)c(OC)cc1N(C)CCN(C)C [SPE_K81958169] | 5.71%
49 | COc1cc2c(cc1NS(=O)(=O)c1ccc(Br)cc1C)n(C)c(=O)n2C [SPE_K92658264] | -2.45%
50 | CCN(CCO)CCCOc1ccc2c(Nc3cc(CC(=O)Nc4cccc(F)c4)n[nH]3)ncnc2c1 [SPE_K63923597] | -6.57%
51 | CNc1ncc2cc(-c3cc(NC(=O)NCCC(C)(C)C)c(F)cc3C)c(C)nc2n1 [SPE_K38385169] | -2.79%
52 | N#Cc1ccc(NCCNCC(=O)N2CCC[C@H]2C#N)nc1 [SPE_K77396579] | -14.3%
53 | CCCCCCCCCCCCCCCCCCO [SPE_K20501889] | -5.89%
54 | Cc1cccc(-c2n[nH]cc2-c2ccc3ncccc3n2)n1 [SPE_K80480517] | 0.32%
55 | CCC[N+]12C3C[C@H](C4C(O)[C@]5(C[C@@H]41)c1ccccc1N(C)[C@@H]35)[C@H](CC)[C@H]2O (stereo partly shown) [SPE_A53539450] | -3.5%
56 | C=C[C@@H]1C[C@]1(NC(=O)[C@@H]1C[C@@H](Oc2ncc(OC)c3ccc(Cl)cc23)CN1C(=O)[C@@H](NC(=O)OC(C)(C)C)C(C)(C)C)C(=O)NS(=O)(=O)C1CC1 [SPE_K87028197] | -0.0254%
57 | NS(=O)(=O)c1cc(C(=O)O)cc(N2CCCC2)c1Oc1ccccc1 [SPE_K87990216] | 0.629%
58 | COc1cc([S+](C)[O-])ccc1-c1nc2ncccc2[nH]1 (stereo not shown) [SPE_A22081593] | -4.2%
59 | Cc1cc(NCCO)nc(-c2ccc(Br)cc2)n1 [SPE_K07656463] | -1.9%
60 | CS(=O)(=O)c1ccc(C(O)[C@H](CF)NC(=O)C(Cl)Cl)cc1 (stereo partly shown) [SPE_A30886737] | 3.66%
61 | Cc1cc2sc(NC(=O)Cc3ccccc3)nc2cc1Cl [SPE_K47409078] | 0.438%
62 | Cc1c(NC(=O)c2cccnc2)c(=O)n(-c2ccccc2)n1C [SPE_K47407372] | -10.1%
63 | COc1ccc(COc2cc3oc(=O)c4cc(C(C)O)ccc4c3cc2OC)cc1 (stereo not shown) [SPE_A50998626] | -7.77%
64 | Cn1c2c(c3ccccc31)CCNCC2 [SPE_K16551401] | 7.36%

Row | Molecule | activation at 10 µM
65 | CS(=O)(=O)c1ccc(-c2cn3ccccc3n2)cc1 [SPE_K45125084] | -7.32%
66 | O=c1c(O)c(-c2cc(O)c(O)c(O)c2)oc2cc(O)cc(O)c12 [SPE_K43149758] | -18.6%
67 | Nc1ccn([C@H]2CC[C@@H](CO)O2)c(=O)n1 [SPE_K85925969] | 2.75%
68 | CN1CCN(c2ccc3nc(-c4ccc5nc(-c6ccc(O)cc6)[nH]c5c4)[nH]c3c2)CC1 [SPE_K17026858] | -8.8%
69 | CCOc1cccc(NC(=O)c2ccc(N3CCCC3)c(C(F)(F)F)c2)c1 [SPE_K42536037] | -13.1%
70 | Cc1cccc(C)c1NC(=O)C(C)N (stereo not shown) [SPE_A92670106] | -8.17%
71 | CCOc1c2c(c(OCC)c3ccccc13)C(=O)N(c1ccc(CC(=O)NS(=O)(=O)c3ccccc3)cc1)C2 [SPE_K50005760] | -9.22%
72 | O=C(NC(Cc1c[nH]c2ccccc12)C(=O)O)c1ccc(Cl)cc1 (stereo not shown) [SPE_A87983072] | -4.45%
73 | CN1C(=O)N(c2cc(Cl)cc(Cl)c2)C(=O)[C@]12CN(Cc1cc(C(=O)O)cs1)C[C@H]2c1ccc(C#N)cc1 [SPE_K20093108] | -2.08%
74 | Fc1ccc(Cl)cc1-c1nc(Nc2ccncc2)c2nccnc2n1 [SPE_K24566386] | -5.24%
75 | Oc1ccc([C@H]2COc3cc(O)ccc3C2)cc1 [SPE_K54847683] | -12.7%
76 | C=CCN1CC[C@]23c4c5ccc(O)c4O[C@H]2[C@@H](OCCOCCOCCOCCOCCOCCOCCOC)CC[C@@]3(O)[C@H]1C5 [SPE_K41458421] | -3.45%
77 | COc1ccc(CNC(=O)c2sc3nc(C)cc(C)c3c2N)cc1 [SPE_K87727457] | -11.5%
78 | COc1ccccc1C(=O)Nc1cccc(NC(=O)c2cccc(C)c2)c1 [SPE_K02160913] | -4.26%
79 | COc1ccc(C(=O)c2ccccc2O)c(O)c1 [SPE_K22193694] | -2.64%
80 | CC(C)(C)C(=O)NCCCC(=O)O [SPE_K62264492] | 5.19%
81 | O=C1NC(=O)c2c1c1c3ccccc3[nH]c1c1[nH]c3ccccc3c21 [SPE_K72726508] | 12.7%
82 | CCCCCCCN(CC)CCCC(O)c1ccc(NS(C)(=O)=O)cc1 (stereo not shown) [SPE_A74391928] | -5.8%
83 | O=C1c2ccccc2C(Cc2ccnc(F)c2)(Cc2ccnc(F)c2)c2ccccc21 [SPE_K89274813] | -6.43%
84 | Clc1ccc(C23CNCC2C3)cc1Cl (stereo not shown) [SPE_A68942014] | -4.9%
85 | CC(C)(C)NCC(O)c1ccccc1Cl (stereo not shown) [SPE_A37441042] | 4.82%
